Test results reported in patent US20120214743A1, “ITCH SUPPRESSANT” (University of Occupational and Environmental Health, Japan, priority 2009, published 2012).
Ends that are not written are not given here. * marks the point of attachment. SO3H = O=S(=O)(O)*

What was measured:
[1] = tested on: normal human keratinocytes (NHEKs); assay: DNA microarray of mRNA expression in stimulated normal human keratinocytes; format: cell-based; settings: histamine 10 μM/mL, SLIGRL-NH2 100 nM
Protocol: For DNA microarray analysis, total RNA was extracted from NHEKs with the RNeasy Mini Kit (QIAGEN, Valencia, Calif.). Images obtained from a plate reader were analyzed with DNASIS Array (DNA CHIP RESERCH Inc., Hitachi Software Engineering, Tokyo, Japan), according to the manufacturer's instructions.
The values are log2 (mRNA expression level of each stimulated sample/expression level of the control).

ICR mice = assay: SP-induced scratch behavior in ICR mice; format: in vivo, mouse; settings: transdermal, 0.5 nmol/site in acetone/olive (3:1), tape-stripped skin, 3-4 minutes before SP 100 nmol/site intradermal; FIG. 3
Protocol: Since it is considered that external administration of CCK affects keratinocytes, at first, CCK2R agonist was administered transdermally (applying the solution prepared using acetone-olive (3:1)) to itch-related behavior model (ICR mice administered intradermally with SP (100 nmol)).
The hair was clipped over the rostral part of the murine back one or two days prior to experiment. Before behavioral recording, each mouse (4 animals per observation) was put into an acrylic cage (18×23×11 cm) for at least 1 hr for acclamation. An intradermal injection of SP (100 nmol in normal saline per site) induces scratching of the skin around the injected site by the hind paws in mice. CCKs were topically applied in the two ways, percutaenous application and intradermal injection. For percutaneous application, the shaved back skin was stripped with Scotch tape (3M) 6 times the day before the experiment. The mice were painted on the clipped back with 20 μL CCK (0.5 nmol/site) in acetone/olive (3:1) 3-4 minutes before SP injection (100 nmol/site). […] Immediately after treatment, the animals were put back into the same cage and their behavior was videotaped using a digital video camera for 40 minutes. The frequency of scratch toward the injected site by hind paws was counted for the first 20 minutes with the video.

CCK2R = assay: Western blotting of CCK2R in ICR mouse keratinocytes incubated with SP; format: cell-based; settings: exposed to SP for 5 or 6 hours, FIG. 2a
Protocol: (§1) Keratinocytes from ICR mice were stimulated with SP (10^−8 M) in six-well plates (Corning Glass Works) for 0.5-24 hours, harvested with a rubber policeman, and subjected to extraction with RIPA buffer (Wako, Osaka, Japan; Tris-HCl (pH8.0), 150 mm sodium chloride, 0.5% (wt/vol) sodium deoxycholate, 0.1% (wt/vol) SDS, and 1.0% (wt/vol) NP-40 substitute). Protein samples (20 μg) were separated by 8% SDS-polyacrylamide gel electrophoresis and electroblotted onto polyvinylidene difluoride membranes for 2 hours at 180 mA. After blocking with skim milk solution, the membranes were incubated with rabbit anti-mouse CCK1R (SC-33220; 1:1,000, Santa Cruz, Santa Cruz, Calif.) polyclonal antibodies,or CCK2R (SC-33221; 1:1,000, Santa Cruz) polyclonal antibodies, and the reaction was detected with horseradish peroxidase—conjugated goat anti-rabbit IgG (1:3,000, Bio-Rad, Hercules, Calif.). […] Bands were quantified by densitometry with the help of a CS Analyzer version 2.0 (ATTO, Tokyo, Japan). […]
(§2) To determine the effect of SP on keratinocytes, ICR mouse keratinocytes were incubated with SP for 30 min to 24 hours and the expression of CCK2R and CCK1R were analyzed by western blotting. CCK2R was detected with antibodies as 78 kDa band, and increased in keratinocytes exposed to SP for 5 or 6 hours (FIG. 2a). […]

CCK1R = assay: Western blotting of CCK1R in ICR mouse keratinocytes incubated with SP; format: cell-based; settings: SP 30 min to 24 hours, FIG. 2b
Protocol: as §1, §2

Compound	ACTL7B mRNA, log2 (expression level of stimulated sample/expression level of the control) ([1]; NHEKs, Ca 0.6 mM, SP 10^−6 M) [log2]	ANKRD6 mRNA, log2 (expression level of stimulated sample/expression level of the control) ([1]; NHEKs, Ca 0.6 mM, SP 10^−6 M) [log2]	BUB1B mRNA, log2 (expression level of stimulated sample/expression level of the control) ([1]; NHEKs, Ca 0.6 mM, SP 10^−6 M) [log2]	CCK2R mRNA, log2 (expression level of stimulated sample/expression level of the control) ([1]; NHEKs, Ca 0.6 mM, SP 10^−6 M) [log2]	FCN3 mRNA, log2 (expression level of stimulated sample/expression level of the control) ([1]; NHEKs, Ca 0.6 mM, SP 10^−6 M) [log2]	MAP3K1 mRNA, log2 (expression level of stimulated sample/expression level of the control) ([1]; NHEKs, Ca 0.6 mM, SP 10^−6 M) [log2]	MMP9 mRNA, log2 (expression level of stimulated sample/expression level of the control) ([1]; NHEKs, Ca 0.6 mM, SP 10^−6 M) [log2]	PDE7B mRNA, log2 (expression level of stimulated sample/expression level of the control) ([1]; NHEKs, Ca 0.6 mM, SP 10^−6 M) [log2]	PTN mRNA, log2 (expression level of stimulated sample/expression level of the control) ([1]; NHEKs, Ca 0.6 mM, SP 10^−6 M) [log2]	SERPINI2 mRNA, log2 (expression level of stimulated sample/expression level of the control) ([1]; NHEKs, Ca 0.6 mM, SP 10^−6 M) [log2]	scratch behavior (frequency of scratch, first 20 minutes) (ICR mice)	also measured
NCCc1c[nH]cn1 [histamine, Histamine]	0.63	0.00	−1.09	−0.01	−0.23	0.88	4.02	0.12	−0.14	0.38		CKM mRNA, log2 (expression level of stimulated sample/expression level of the control) ([1]; NHEKs, Ca 0.6 mM, SP 10^−6 M): 1.04 log2; F10 mRNA, log2 (expression level of stimulated sample/expression level of the control) ([1]; NHEKs, Ca 0.6 mM, SP 10^−6 M): 1.36 log2; NDRG4 mRNA, log2 (expression level of stimulated sample/expression level of the control) ([1]; NHEKs, Ca 0.6 mM, SP 10^−6 M): 1.59 log2; changes in the expression levels of CCK2R in stimulated NHEKs [1]: no significant changes
Asp-Tyr-Met-Gly-Trp-Met-Asp-Phe-NH2 (DYMGWMDF-NH2) [CCK8, cholecystokinin analogue in which the tyrosine is not sulfated]											no significant reduction	
Met-Gly-Trp-Met-Asp-Phe-NH2 (MGWMDF-NH2) [CCK6, cholecystokinin analogue without the tyrosine]											no significant reduction	
Ser-Leu-Ile-Gly-Arg-Leu-NH2 (SLIGRL-NH2) [synthetic agonist of PAR-2]	0.84	−0.17	0.52	0.06	−0.62	0.64	0.11	1.00	0.12	0.72		ARG1 mRNA, log2 (expression level of stimulated sample/expression level of the control) ([1]; NHEKs, Ca 0.6 mM, SP 10^−6 M): 0.71 log2; CYP17A1 mRNA, log2 (expression level of stimulated sample/expression level of the control) ([1]; NHEKs, Ca 0.6 mM, SP 10^−6 M): 0.92 log2; changes in the expression levels of CCK2R in stimulated NHEKs [1]: no significant changes
Substance P [SP]	0.99	3.20	3.06	8.67	4.50	1.06	1.12	1.02	4.04	1.00		AR mRNA, log2 (expression level of stimulated sample/expression level of the control) ([1]; NHEKs, Ca 0.6 mM, SP 10^−6 M): 0.99 log2; ARG1 mRNA, log2 (expression level of stimulated sample/expression level of the control) ([1]; NHEKs, Ca 0.6 mM, SP 10^−6 M): 1.69 log2; CKM mRNA, log2 (expression level of stimulated sample/expression level of the control) ([1]; NHEKs, Ca 0.6 mM, SP 10^−6 M): 1.72 log2; CLEC7A mRNA, log2 (expression level of stimulated sample/expression level of the control) ([1]; NHEKs, Ca 0.6 mM, SP 10^−6 M): 1.16 log2; CYP17A1 mRNA, log2 (expression level of stimulated sample/expression level of the control) ([1]; NHEKs, Ca 0.6 mM, SP 10^−6 M): 1.40 log2; F10 mRNA, log2 (expression level of stimulated sample/expression level of the control) ([1]; NHEKs, Ca 0.6 mM, SP 10^−6 M): 1.74 log2; ICAM1 mRNA, log2 (expression level of stimulated sample/expression level of the control) ([1]; NHEKs, Ca 0.6 mM, SP 10^−6 M): 1.16 log2; NDRG4 mRNA, log2 (expression level of stimulated sample/expression level of the control) ([1]; NHEKs, Ca 0.6 mM, SP 10^−6 M): 1.00 log2; RASSF7 mRNA, log2 (expression level of stimulated sample/expression level of the control) ([1]; NHEKs, Ca 0.6 mM, SP 10^−6 M): 1.82 log2; SV2B mRNA, log2 (expression level of stimulated sample/expression level of the control) ([1]; NHEKs, Ca 0.6 mM, SP 10^−6 M): 1.54 log2; CCK2R expression (78 kDa band) in keratinocytes exposed to SP (CCK2R): increased; CCK1R expression in keratinocytes exposed to SP (CCK1R): not augmented
Tyr(SO3H)-Met-Gly-Trp-Met-Asp-Phe-NH2 (Y(SO3H)MGWMDF-NH2; N-terminus assumed; SMILES CSCC[C@H](NC(=O)[C@H](Cc1c[nH]c2ccccc12)NC(=O)CNC(=O)[C@H](CCSC)NC(=O)[C@@H](N)Cc1ccc(OS(=O)(=O)O)cc1)C(=O)N[C@@H](CC(=O)O)C(=O)N[C@@H](Cc1ccccc1)C(N)=O) [CCK7S, natural type cholecystokinin, tyrosine at seventh position from C-terminal sulfated]											significant reduction	
Tyr-Met-Gly-Trp-Met-Asp-Phe-NH2 (YMGWMDF-NH2) [CCK7, cholecystokinin analogue in which the tyrosine is not sulfated]											no significant reduction	
